Assays:
wheat = assay: Test B postemergence herbicide test; assay type: in vivo, Triticum aestivum; set-up: key to Wheat plant response rating: 0 = no effect, 100 = complete control; details: postemergence
In short: (§1)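 Formulated test chemicals went onto postemergence plants measuring 2 to 18 cm, at one to four leaves. For the paddy assay, species had reached two leaves. Scoring took place 13–15 days later by eye, relative to untreated plants, using 0 for no effect up to 100 for full control.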

large crabgrass [1] = assay: Test A pre-/postemergence herbicide test; assay type: in vivo, Digitaria sanguinalis
In short: (§2)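 Visual injury rating on a 0–100 scale (0 no effect, 100 complete control) versus untreated controls, about ten days after treatment in greenhouse. Pre: directed soil spray onto seeded sandy loam. Post: spray to runoff on plants 2–10 cm tall at one- to two-leaf stage.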

rice [2] = assay: Test B flooded paddy test; assay type: in vivo, Oryza sativa; details: 1000 g ai/ha, scale 0 to 100 (0 no effect, 100 complete control)
In short: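 After treating 2-leaf paddy plants or 2–18 cm postemergence plants (1 to 4 leaves) with formulated chemical, researchers kept them in a greenhouse for 13–15 days. Effects were judged visually versus controls: 0 indicates none, 100 total control.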

barnyardgrass [3] = assay: Test B flooded paddy test; assay type: in vivo, Echinochloa crus-galli; details: 1000 g ai/ha, scale 0 to 100 (0 no effect, 100 complete control)
In short: (§3)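 Visual ratings, 0 (no effect) to 100 (complete control), made versus controls after 13–15 d greenhouse. Paddy plants treated at 2-leaf stage; postemergence plants at 1- to 4-leaf stage, 2–18 cm tall.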

barnyardgrass [4] = assay: Test A pre-/postemergence herbicide test; assay type: in vivo, Echinochloa crus-galli
In short: as §2

barnyardgrass [5] = assay: Test B pre-/postemergence herbicide test; assay type: in vivo, Echinochloa crus-galli; details: for Barnyardgrass plant response rating: postemergence
In short: (§4)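 Visual rating, 0 (no effect) to 100 (complete control), versus untreated controls after 13–15 d in greenhouse. Pre- and postemergence applications (postemergence plants 2–18 cm, 1–4 leaves); flooded paddy arm at 2-leaf stage. Compounds in non-phytotoxic solvent plus surfactant.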

lambsquarters = assay: Test B pre-/postemergence herbicide test; assay type: in vivo, Chenopodium album; details: for Lambsquarters plant response rating: postemergence
In short: (§5)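 Flooded paddy rice and barnyardgrass were treated at the 2-leaf stage; upland plantings received compound either on sown seed or on 1- to 4-leaf seedlings. All were kept 13–15 days in a greenhouse and scored visually, 0–100, relative to untreated plants.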

[6] = tested on: small flower umbrella sedge; assay: Test B flooded paddy test; assay type: in vivo, Cyperus difformis; details: 1000 g ai/ha, scale 0 to 100 (0 no effect, 100 complete control)
In short: as §3

blackgrass = assay: Test B postemergence herbicide test; assay type: in vivo, Alopecurus myosuroides; details: postemergence
In short: as §3

velvetleaf [7] = assay: Test A pre-/postemergence herbicide test; assay type: in vivo, Abutilon theophrasti
In short: as §2

morningglory [8] = assay: Test A pre-/postemergence herbicide test; assay type: in vivo, Ipomoea spp.
In short: as §2

morningglory [9] = assay: Test B pre-/postemergence herbicide test; assay type: in vivo, Ipomoea coccinea; details: for Morningglory plant response rating: postemergence
In short: as §4

large crabgrass [10] = assay: Test B pre-/postemergence herbicide test; assay type: in vivo, Digitaria sanguinalis; details: for Crabgrass, Large plant response rating: postemergence
In short: as §5

wild oat = assay: Test B postemergence herbicide test; assay type: in vivo, Avena fatua; details: postemergence
In short: as §1

redroot pigweed = assay: Test A pre-/postemergence herbicide test; assay type: in vivo, Amaranthus retroflexus
In short: as §2

Surinam grass = assay: Test B pre-/postemergence herbicide test; assay type: in vivo, Urochloa decumbens; details: for Surinam Grass plant response rating: postemergence
In short: as §5

corn = assay: Test B pre-/postemergence herbicide test; assay type: in vivo, Zea mays; details: for Corn plant response rating: postemergence
In short: as §5

ducksalad = assay: Test B flooded paddy test; assay type: in vivo, Heteranthera limosa; details: 1000 g ai/ha, scale 0 to 100 (0 no effect, 100 complete control)
In short: as §3

rice [11] = assay: Test B pre-/postemergence herbicide test; assay type: in vivo, Oryza sativa; details: preemergence
In short: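 Evaluation is visual, comparing treated with control plants on a scale where 0 means no effect and 100 means full control. Treatments were preemergence, or postemergence on seedlings 2–18 cm tall, and held 13–15 days in the greenhouse.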

giant foxtail [12] = assay: Test B pre-/postemergence herbicide test; assay type: in vivo, Setaria faberi; details: for Foxtail, Giant plant response rating: postemergence
In short: as §5

giant foxtail [13] = assay: Test A pre-/postemergence herbicide test; assay type: in vivo, Setaria faberi
In short: as §2

cocklebur = assay: Test B pre-/postemergence herbicide test; assay type: in vivo, Xanthium strumarium; details: for Cocklebur plant response rating: postemergence
In short: as §4

pigweed = assay: Test B pre-/postemergence herbicide test; assay type: in vivo, Amaranthus retroflexus; details: for Pigweed plant response rating: postemergence
In short: as §5

velvetleaf [14] = assay: Test B pre-/postemergence herbicide test; assay type: in vivo, Abutilon theophrasti; details: for Velvetleaf plant response rating: postemergence
In short: as §5

[15] = 125 g ai/ha, visual rating, scale 0 (no effect) to 100 (complete control)
[16] = 500 g ai/ha, scale 0 to 100, 0 is no effect, 100 is complete control
[17] = Postemergence, 500 g ai/ha, 0 to 100 scale, 0 no effect, 100 complete control
[18] = Postemergence, 2000 g ai/ha, 0 to 100 scale, 0 no effect, 100 complete control
[19] = Preemergence, 2000 g ai/ha, visual rating, 0 to 100 scale (0 no effect, 100 complete control)
[20] = preemergence, 500 g ai/ha, visual injury, 0 to 100 scale (0 no effect, 100 complete control)
[21] = 125 g ai/ha, 0 is no effect, 100 is complete control, preemergence
[22] = 500 g ai/ha, visual rating, 0 = no effect, 100 = complete control, preemergence

CCSCNC(=O)c1cccc(NC(=O)c2cc(C(C)(C)C)nn2CC)c1 [Compound 329]
20: Wheat plant response rating (wheat; [15]) | Plant response rating, Barnyardgrass (barnyardgrass [4]; [18]) | Blackgrass plant response rating (blackgrass; [15]) | Blackgrass plant response rating (blackgrass; [16]) | Plant response rating, Morningglory (morningglory [8]; [18]) | Morningglory plant response rating (morningglory [9]; [16]) | Oat, Wild plant response rating (wild oat; [15]) | Surinam Grass plant response rating (Surinam grass; [16]) | Corn plant response rating (corn; [16]) | Plant response rating, Foxtail, Giant (giant foxtail [13]; [18])
25: Plant response rating, Velvetleaf (velvetleaf [7]; [18])
15: Barnyardgrass plant response rating (barnyardgrass [4]; [17])
10: Crabgrass, Large plant response rating (large crabgrass [1]; [17]) | Barnyardgrass plant response rating (barnyardgrass [5]; [16]) | Velvetleaf plant response rating (velvetleaf [7]; [17]) | Velvetleaf plant response rating (velvetleaf [7]; [19]) | Morningglory plant response rating (morningglory [8]; [17]) | Morningglory plant response rating (morningglory [8]; [19]) | Crabgrass, Large plant response rating (large crabgrass [10]; [16]) | Pigweed plant response rating (redroot pigweed; [17]) | Pigweed plant response rating (redroot pigweed; [19]) | Surinam Grass plant response rating (Surinam grass; [15]) | Foxtail, Giant plant response rating (giant foxtail [12]; [15]) | Foxtail, Giant plant response rating (giant foxtail [13]; [17]) | Velvetleaf plant response rating (velvetleaf [14]; [15])
0: Crabgrass, Large plant response rating (large crabgrass [1]; [19]) | Crabgrass, Large plant response rating (large crabgrass [1]; [20]) | Rice plant response rating (rice [2]) | Barnyardgrass plant response rating (barnyardgrass [3]) | Barnyardgrass plant response rating (barnyardgrass [4]; [20]) | Plant response rating (0 to 100 scale), Barnyardgrass (barnyardgrass [5]; [21]) | Barnyardgrass plant response rating (barnyardgrass [5]; [15]) | Plant response rating, Barnyardgrass (barnyardgrass [5]; [22]) | Plant response rating (0 to 100 scale), Lambsquarters (lambsquarters; [21]) | Sedge, Umbrella plant response rating [6] | Velvetleaf plant response rating (velvetleaf [7]; [20]) | Morningglory plant response rating (morningglory [8]; [20]) | Plant response rating (0 to 100 scale), Morningglory (morningglory [9]; [21]) | Morningglory plant response rating (morningglory [9]; [15]) | Plant response rating, Morningglory (morningglory [9]; [22]) | Plant response rating (0 to 100 scale), Crabgrass, Large (large crabgrass [10]; [21]) | Crabgrass, Large plant response rating (large crabgrass [10]; [15]) | Plant response rating, Crabgrass, Large (large crabgrass [10]; [22]) | Plant response rating (0 to 100 scale), Surinam Grass (Surinam grass; [21]) | Plant response rating, Surinam Grass (Surinam grass; [22]) | Plant response rating (0 to 100 scale), Corn (corn; [21]) | Corn plant response rating (corn; [15]) | Plant response rating, Corn (corn; [22]) | Ducksalad plant response rating (ducksalad) | Plant response rating (0 to 100 scale), Rice (rice [11]; 125 g ai/ha, 0 is no effect, 100 is complete control) | Plant response rating, Rice (rice [11]; 500 g ai/ha, visual rating, 0 = no effect, 100 = complete control) | Plant response rating (0 to 100 scale), Foxtail, Giant (giant foxtail [12]; [21]) | Plant response rating, Foxtail, Giant (giant foxtail [12]; [22]) | Foxtail, Giant plant response rating (giant foxtail [13]; [20]) | Plant response rating (0 to 100 scale), Cocklebur (cocklebur; [21]) | Cocklebur plant response rating (cocklebur; [15]) | Plant response rating, Cocklebur (cocklebur; [22]) | Plant response rating (0 to 100 scale), Pigweed (pigweed; [21]) | Plant response rating, Pigweed (pigweed; [22]) | Plant response rating (0 to 100 scale), Velvetleaf (velvetleaf [14]; [21]) | Plant response rating, Velvetleaf (velvetleaf [14]; [22])
70: Lambsquarters plant response rating (lambsquarters; [16])
45: Plant response rating, Pigweed (redroot pigweed; [18])
30: Wheat plant response rating (wheat; [16]) | Lambsquarters plant response rating (lambsquarters; [15]) | Oat, Wild plant response rating (wild oat; [16]) | Foxtail, Giant plant response rating (giant foxtail [12]; [16]) | Cocklebur plant response rating (cocklebur; [16]) | Velvetleaf plant response rating (velvetleaf [14]; [16])
5: Plant response rating, Crabgrass, Large (large crabgrass [1]; [18]) | Barnyardgrass plant response rating (barnyardgrass [4]; [19]) | Pigweed plant response rating (redroot pigweed; [20]) | Foxtail, Giant plant response rating (giant foxtail [13]; [19])
50: Pigweed plant response rating (pigweed; [15])
80: Pigweed plant response rating (pigweed; [16])
